Assay results reported in patent US10487094B1, “Bergenin thiodipropionic acid ester with antioxidant activity and a method of improving the antioxidant property of ganoderma lucidum spore oil using the same” (SHAANXI UNIVERSITY OF SCIENCE AND TECHNOLOGY, priority 2018, dated 2019).

How the values were obtained:
[1] = DPPH radical scavenging activity of sample and control solutions; assay type: biochemical; conditions: for Scavenging activity: 0.2 mmol/L DPPH, 30 min, 517 nm, n = 3
Description: In the DPPH molecule, due to the presence of multiple electron-withdrawing —NO2 and large π bonds of the benzene ring, nitrogen free radical is stabilized. Its methanol solution is purple and has a maximum absorption peak at 517 nm. After the addition of an antioxidant, DPPH captures an electron to be paired with the free electron, and the purple fades and turns into a yellow substance. The absorption at 517 nm disappears, and the degree of fading is quantitatively related to the number of electrons it captures. Based on this principle, a spectrophotometer is used to detect the change of the absorbance of the DPPH radical and the sample solution, and the ability of the sample to provide hydrogen atoms and scavenge free radicals can be measured.
Preparation of DPPH Solution: Measuring Exact Amount of 1,1-diphenyl-2-picryl hydrazyl (DPPH) and dissolving in methanol to prepare a 0.2 mmol/L DPPH Solution, Stored at 0° C. in Dark
Preparation of sample solutions: Vitamin C (positive control), bergenin thiodipripionic acid ester (sample), bergenin (control), thiodipropionic acid (control), mixture of bergenin and thiodipropionic acid (control). The sample solution was serially diluted with acetonitrile, and four groups of controls were separately dissolved in a test tube with a certain amount of methanol to prepare the same concentration gradient as the sample. Four corresponding groups of control solutions were prepared in the same way.
2 mL of the sample solution (Table 1: B), 2 mL 0.2 mmol/L DPPH solution was added, the mixture was mixed and reacted at room temperature in dark for 30 minutes, and methanol was then added to adjust final volume. The absorbance Ai was measured at 517 nm. 2 mL control solution and 2 mL methanol were mixed, and the absorbance Aj was measured. 2 mL DPPH solution and 2 mL methanol were mixed, and the absorbance A0 was measured.
2 mL of the control solutions (Table 1: C, D, E), 2 mL 0.2 mmol/L DPPH solution was added, the mixture was mixed and reacted at room temperature in dark for 30 minutes, and methanol was then added to adjust final volume. The absorbance Ai was measured at 517 nm. 2 mL control solution and 2 mL methanol were mixed, and the absorbance Aj was measured. 2 mL DPPH solution and 2 mL methanol were mixed, and the absorbance A0 was measured. The scavenging activity of the sample solution and control solutions is calculated according to the following calculation formula. Scavenging activity (%)=[1−(Ai−Aj)/Ao]*100%

[2] = DPPH radical scavenging activity of Ganoderma lucidum spore oil with and without bergenin thiodipripionic acid ester; assay type: biochemical; conditions: added at 0.2%, 0.4%, 0.6%

| SMILES | Scavenging activity ([1]; 0.04 mg/ml) [%] | Scavenging activity ([1]; 0.08 mg/ml) [%] | Scavenging activity ([1]; 0.16 mg/ml) [%] | Scavenging activity ([1]; 0.83 mg/ml) [%] | Scavenging activity ([1]; 1.66 mg/ml) [%] | Scavenging activity ([1]; 8.28 mg/ml) [%] | Scavenging activity ([1]; 16.56 mg/ml) [%] | Scavenging activity ([1]; 24.84 mg/ml) [%] | Scavenging activity ([1]; 33.12 mg/ml) [%] | scavenging ability compared with bergenin (C), thiodipropionic acid (D) and their 2:1 mixture (E) ([1]; at the same concentration) | effect on antioxidant capacity of Ganoderma lucidum spore oil [2] |
| --- | --- | --- | --- | --- | --- | --- | --- | --- | --- | --- | --- |
| O=C(O)CCSCCC(=O)O [D, Thiodipropionic acid] | 1.96 | 8.73 | 9.07 | 9.18 | 9.41 | 10.56 | 11.83 | 13.09 | 14.47 |  |  |
| COc1c(O)cc2c(c1O)[C@@H]1O[C@H](CO)[C@@H](O)[C@H](O)[C@H]1OC2=O [C, Bergenin] | 8.63 | 12.25 | 19.80 | 25.59 | 41.86 | 59.12 | 94.78 | 94.87 | 95.18 |  |  |
| COc1c(O)cc2c(c1O)C1OC(COC(=O)CCSCCC(=O)OCC3OC4c5c(cc(O)c(OC)c5O)C(=O)OC4C(O)C3O)C(O)C(O)C1OC2=O (centres unmarked) [B, bis((3,4,8,10-tetrahydroxy-9-methoxy-6-oxo-2,3,4,4a,6,10b-hexahydropyrano[3,2-c]isochromen-2-yl)methyl) 3,3′-thiodipropionate] | 28.01 | 37.78 | 51.33 | 60.22 | 76.33 | 82.56 | 95.67 | 96.22 | 96.22 | significantly better | improves the antioxidant capacity of Ganoderma lucidum spore oil |
| O=C1O[C@H]([C@@H](O)CO)C(O)=C1O [Vc, Vitamin C] | 94.90 | 94.90 | 95.03 | 95.03 | 98.67 | 98.92 | 99.00 | 99.00 | 99.00 |  |  |
